Results published in patent US12599672B2, “KRAS proteolysis targeting chimeras” (PAQ Therapeutics Inc., priority 2023, dated 2026).

target: T1, KRAS G12D (Homo sapiens, UniProt P01116, G12D); test: KRAS G12D HiBit assay; assay type: cell-based; conditions: AsPc-1-KRAS (G12D)-HiBit-KI cell, compound treatment for 24 hours, absolute DC50; class symbols
T1 construct: AsPc-1-KRAS (G12D)-HiBit-KI cell (Pharmaron); host or cells: AsPc-1-KRAS (G12D)-HiBit-KI cells (HiBiT knock-in at the endogenous KRAS locus)
T1 sequence (P01116 1-188 isoform P01116-2 G12D): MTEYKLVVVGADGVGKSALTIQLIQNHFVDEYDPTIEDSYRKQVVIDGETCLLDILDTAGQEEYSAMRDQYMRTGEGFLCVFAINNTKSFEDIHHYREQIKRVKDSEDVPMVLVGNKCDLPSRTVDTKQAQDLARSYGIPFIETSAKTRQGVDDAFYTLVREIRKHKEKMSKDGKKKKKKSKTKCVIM
Description: Day 1. […] Allowed cells to reach approximately 80% confluence before splitting. Rinsed cultivated cells in T-75 flasks with 5 mL PBS (Solarbio, P1020-500). […] Inactivated trypsin by adding excessive serum containing medium. Harvested the cells from flask into cell culture medium and counted the cell number.
Day 2. Test compounds were dissolved at 0.3 mM in DMSO (Solarbio, D8371) as stock solution. […] Performed 3-fold, 10-points dilution via transferring 15 μL compound into 30 μL DMSO by using TECAN liquid handler (TECAN, Freedom EVO200).
Day 3. After compound treatment for 24 hours, removed the plate from incubators and equilibrated at room temperature for 15 minutes. Prepared the HiBit reagent (Promega, N3040) by mixing 10 mL of Nano-Glo®-HiBiT Lytic Buffer with 200 μL of Nano-Glo®-HiBiT Lytic Substrate and 100 μL of LgBiT Protein. Added 20 μL of HiBit reagent into each well of the cell plate and spun the plates at room temperature at 1,000 RPM for 1 minute.
The inhibition activity was calculated using the following formula:
[formula] where HC (high control) is obtained from cells treated with 0.1% DMSO only.

Row | SMILES | DC50 [nM]
1 | C#Cc1c(F)ccc2cccc(-c3ncc4c(N5CCC[C@@](C)(O)C5)nc(OCC5(CN6CCC7(CC6)CC(N6CCC(c8ccc9c(c8)n(C)c(=O)n9C8CCC(=O)NC8=O)CC6)C7)CC5)nc4c3F)c12 (stereo partly drawn) [Compound 36] | > 300
2 | C#Cc1c(F)ccc2cccc(-c3ncc4c(N5CCC[C@@](C)(O)C5)nc(OCC5(CN6CCN(Cc7ccc8c(c7)n(C)c(=O)n8C7CCC(=O)NC7=O)CC6)CC5)nc4c3F)c12 (stereo partly drawn) [Compound 37] | > 300
3 | C#Cc1c(F)ccc2cccc(-c3ncc4c(N5CCC[C@@](C)(O)C5)nc(OCC5(CN6CCC(N7CCC(c8ccc9c(c8)n(C)c(=O)n9C8CCC(=O)NC8=O)CC7)CC6)CC5)nc4c3F)c12 (stereo partly drawn) [Compound 39] | > 300
4 | C#Cc1c(F)ccc2cccc(-c3ncc4c(N5CCC[C@@](C)(O)C5)nc(OCC5(CN6CCC7(CC6)CC(N6CCN(c8ccc9c(c8)n(C)c(=O)n9C8CCC(=O)NC8=O)CC6)C7)CC5)nc4c3F)c12 (stereo partly drawn) [Compound 41] | > 300
5 | C#Cc1c(F)ccc2cccc(-c3ncc4c(N5CCC[C@@](C)(O)C5)nc(OCC5(CN6CCC(CN7CCC(c8ccc9c(c8)n(C)c(=O)n9C8CCC(=O)NC8=O)CC7)CC6)CC5)nc4c3F)c12 (stereo partly drawn) [Compound 48] | > 300
6 | C#Cc1c(F)ccc2cccc(-c3ncc4c(N5CCC[C@@](C)(O)C5)nc(OCC5(CN6CCN(Cc7cccc8c7n(C)c(=O)n8C7CCC(=O)NC7=O)CC6)CC5)nc4c3F)c12 (stereo partly drawn) [Compound 61] | > 300
7 | C#Cc1c(F)ccc2cccc(-c3ncc4c(N5CCC[C@@](C)(O)C5)nc(OCC5(CN6CCC7(CCC(c8cccc9c8n(C)c(=O)n9C8CCC(=O)NC8=O)CC7)CC6)CC5)nc4c3F)c12 (stereo partly drawn) [Compound 66] | > 300
8 | C#Cc1c(F)ccc2cccc(-c3ncc4c(N5CCC[C@@](C)(O)C5)nc(OC[C@@]56CCCN5[C@H](COC(=O)NCCOCCOc5ccc7c(c5)n(C)c(=O)n7C5CCC(=O)NC5=O)CC6)nc4c3F)c12 (stereo partly drawn) [Compound 107] | > 300
9 | C#Cc1c(F)ccc2cccc(-c3ncc4c(N5CCC[C@@](C)(O)C5)nc(OC[C@@]56CCCN5[C@H](COC(=O)NCCOCCOCCOc5ccc7c(c5)n(C)c(=O)n7C5CCC(=O)NC5=O)CC6)nc4c3F)c12 (stereo partly drawn) [Compound 108, ((3S,7aS)-7a-(((7-(8-ethynyl-7-fluoronaphthalen-1-yl)-8-fluoro-4-((R)-3-hydroxy-3-methylpiperidin-1-yl)pyrido[4,3-d]pyrimidin-2-yl)oxy)methyl)hexahydro-1H-pyrrolizin-3-yl)methyl (2-(2-(2-((1-(2,6-dioxopiperidin-3-yl)-3-methyl-2-oxo-2,3-dihydro-1H-benzo[d]imidazol-5-yl)oxy)ethoxy)ethoxy)ethyl) carbamate] | > 300
10 | C#Cc1c(F)ccc2cccc(-c3ncc4c(N5CCC[C@@](C)(O)C5)nc(OC[C@@]56CCCN5[C@H](COC(=O)NCCOCCOCCOCCOc5ccc7c(c5)n(C)c(=O)n7C5CCC(=O)NC5=O)CC6)nc4c3F)c12 (stereo partly drawn) [Compound 109, ((3S,7aS)-7a-(((7-(8-ethynyl-7-fluoronaphthalen-1-yl)-8-fluoro-4-((R)-3-hydroxy-3-methylpiperidin-1-yl)pyrido[4,3-d]pyrimidin-2-yl)oxy)methyl)hexahydro-1H-pyrrolizin-3-yl)methyl (2-(2-(2-(2-((1-(2,6-dioxopiperidin-3-yl)-3-methyl-2-oxo-2,3-dihydro-1H-benzo[d]imidazol-5-yl)oxy)ethoxy)ethoxy)ethoxy)ethyl) carbamate] | > 300
11 | CCc1c(F)ccc2cc(O)cc(-c3ncc4c(N5CCC[C@@](C)(O)C5)nc(OC[C@@]56CCCN5[C@H](COC(=O)NCCOCCOc5ccc7c(c5)n(C)c(=O)n7C5CCC(=O)NC5=O)CC6)nc4c3F)c12 (stereo partly drawn) [Compound 112, ((3S,7aS)-7a-(((7-(8-ethyl-7-fluoro-3-hydroxynaphthalen-1-yl)-8-fluoro-4-((R)-3-hydroxy-3-methylpiperidin-1-yl)pyrido[4,3-d]pyrimidin-2-yl)oxy)methyl)hexahydro-1H-pyrrolizin-3-yl)methyl (2-(2-((1-(2,6-dioxopiperidin-3-yl)-3-methyl-2-oxo-2,3-dihydro-1H-benzo[d]imidazol-5-yl)oxy)ethoxy)ethyl) carbamate] | > 300
12 | CCc1c(F)ccc2cc(O)cc(-c3ncc4c(N5CCC[C@@](C)(O)C5)nc(OC[C@@]56CCCN5[C@H](COC(=O)NCCOCCOCCOc5ccc7c(c5)n(C)c(=O)n7C5CCC(=O)NC5=O)CC6)nc4c3F)c12 (stereo partly drawn) [Compound 113, ((3S,7aS)-7a-(((7-(8-Ethyl-7-fluoro-3-hydroxynaphthalen-1-yl)-8-fluoro-4-((R)-3-hydroxy-3-methylpiperidin-1-yl)pyrido[4,3-d]pyrimidin-2-yl)oxy)methyl)hexahydro-1H-pyrrolizin-3-yl)methyl (2-(2-(2-((1-(2,6-dioxopiperidin-3-yl)-3-methyl-2-oxo-2,3-dihydro-1H-benzo[d]imidazol-5-yl)oxy)ethoxy)ethoxy)ethyl) carbamate] | > 300
13 | C#Cc1c(F)ccc2cc(O)cc(-c3ncc4c(N5CCC[C@@](C)(O)C5)nc(OC[C@@]56CCCN5[C@H](COC(=O)NCCOCCOc5ccc7c(c5)n(C)c(=O)n7C5CCC(=O)NC5=O)CC6)nc4c3F)c12 (stereo partly drawn) [Compound 114, ((3S,7aS)-7a-(((7-(8-Ethynyl-7-fluoro-3-hydroxynaphthalen-1-yl)-8-fluoro-4-((R)-3-hydro-xy-3-methylpiperidin-1-yl)pyrido[4,3-d]pyrimidin-2-yl)oxy)methyl)hexahydro-1H-pyrrolizin-3-yl)methyl (2-(2-((1-(2,6-dioxopiperidin-3-yl)-3-methyl-2-oxo-2,3-dihydro-1H-benzo[d]imidazol-5-yl)oxy)ethoxy)ethyl) carbamate] | > 300

Continued, values first:

Row | DC50 [nM] | SMILES
14 | > 300 | C#Cc1c(F)ccc2cccc(-c3ncc4c(N5CCC[C@@](C)(O)C5)nc(OCC5(CN6CCN(CC7CCN(c8ccc9c(c8)n(C)c(=O)n9C8CCC(=O)NC8=O)CC7)CC6)CC5)nc4c3F)c12 (stereo partly drawn) [Compound 24]
15 | > 300 | C#Cc1c(F)ccc2cccc(-c3ncc4c(N5CCC[C@@](C)(O)C5)nc(OCC5(CN6CCC(CN7CCN(c8ccc9c(c8)n(C)c(=O)n9C8CCC(=O)NC8=O)CC7)CC6)CC5)nc4c3F)c12 (stereo partly drawn) [Compound 26]
16 | > 300 | C#Cc1c(F)ccc2cccc(-c3ncc4c(N5CCC[C@@](C)(O)C5)nc(OCC5(CN6CCN(CCN7CCN(c8ccc9c(c8)n(C)c(=O)n9C8CCC(=O)NC8=O)CC7)CC6)CC5)nc4c3F)c12 (stereo partly drawn) [Compound 27]
17 | > 300 | C#Cc1c(F)ccc2cccc(-c3ncc4c(N5CCC[C@@](C)(O)C5)nc(OCC5(CN6CCC(N7CCN(c8ccc9c(c8)n(C)c(=O)n9C8CCC(=O)NC8=O)CC7)CC6)CC5)nc4c3F)c12 (stereo partly drawn) [Compound 29]
18 | < 100 | C#Cc1c(F)ccc2cc(O)cc(-c3ncc4c(N5CCC[C@@](C)(O)C5)nc(OCC5(CN6CCC(N7CCN(c8ccc9c(c8)n(C)c(=O)n9C8CCC(=O)NC8=O)CC7)CC6)CC5)nc4c3F)c12 (stereo partly drawn) [Compound 30]
19 | > 300 | C#Cc1c(F)ccc2cccc(-c3ncc4c(N5CCC[C@@](C)(O)C5)nc(OCC5(CN6CCC7(CC6)CC(N6CCC(c8ccc9c(C%10CCC(=O)NC%10=O)nn(C)c9c8)CC6)C7)CC5)nc4c3F)c12 (stereo partly drawn) [Compound 35]
20 | < 100 | C#Cc1c(F)ccc2cc(O)cc(-c3ncc4c(N5CCC[C@@](C)(O)C5)nc(OCC5(CN6CCN(C7CCN(c8ccc9c(c8)n(C)c(=O)n9C8CCC(=O)NC8=O)CC7)CC6)CC5)nc4c3F)c12 (stereo partly drawn) [Compound 45]
21 | < 100 | C#Cc1c(F)ccc2cc(O)cc(-c3ncc4c(N5CCC[C@@](C)(O)C5)nc(OCC5(CN6CCC(CN7CCN(c8ccc9c(c8)C(=O)N(C8CCC(=O)NC8=O)C9=O)CC7)CC6)CC5)nc4c3F)c12 (stereo partly drawn) [Compound 46]
22 | < 100 | C#Cc1c(F)ccc2cc(O)cc(-c3ncc4c(N5CCC[C@@](C)(O)C5)nc(OCC5(CN6CCC7(CC6)CC(N6CCC(c8ccc9c(c8)n(C)c(=O)n9C8CCC(=O)NC8=O)CC6)C7)CC5)nc4c3F)c12 (stereo partly drawn) [Compound 54]
23 | < 100 | C#Cc1c(F)ccc2cc(O)cc(-c3ncc4c(N5CCC[C@@](C)(O)C5)nc(OCC5(CN6CCC(N7CCC(c8ccc9c(c8)n(C)c(=O)n9C8CCC(=O)NC8=O)CC7)CC6)CC5)nc4c3F)c12 (stereo partly drawn) [Compound 59]
24 | < 100 | C#Cc1c(F)ccc2cc(O)cc(-c3ncc4c(N5CCC[C@@](C)(O)C5)nc(OCC5(CN6CCC(N7CCC(c8cccc9c8n(C)c(=O)n9C8CCC(=O)NC8=O)CC7)CC6)CC5)nc4c3F)c12 (stereo partly drawn) [Compound 85]

same assay, conditions: AsPc-1-KRAS (G12D)-HiBit-KI cell, compound treatment for 24 hours, absolute DC50; numeric bounds given in place of class symbols

Row | DC50 [nM] | SMILES
25 | > 100 | C#Cc1c(F)ccc2cccc(-c3ncc4c(N5CCC[C@@](C)(O)C5)nc(OCC5(CN6CCC7(CC6)CCN(c6ccc8c(c6)n(C)c(=O)n8C6CCC(=O)NC6=O)CC7)CC5)nc4c3F)c12 (stereo partly drawn) [Compound 38]
26 | > 100 | C#Cc1c(F)ccc2cccc(-c3ncc4c(N5CCC[C@@](C)(O)C5)nc(OCC5(CN6CCC7(CC6)CC(N6CCC(c8cccc9c8n(C)c(=O)n9C8CCC(=O)NC8=O)CC6)C7)CC5)nc4c3F)c12 (stereo partly drawn) [Compound 44]
27 | > 100 | C#Cc1c(F)ccc2cccc(-c3ncc4c(N5CCC[C@@](C)(O)C5)nc(OC5CCN(CC(=O)N6CCC7(CC6)CC(N6CCC(c8ccc9c(c8)n(C)c(=O)n9C8CCC(=O)NC8=O)CC6)C7)CC5)nc4c3F)c12 (stereo partly drawn) [Compound 87]

same assay, conditions: AsPc-1-KRAS (G12D)-HiBit-KI cell, compound treatment for 24 hours; class symbols

Row | Dmax [%] | SMILES
28 | 15 to 50 | C#Cc1c(F)ccc2cccc(-c3ncc4c(N5CCC[C@@](C)(O)C5)nc(OC[C@@]56CCCN5[C@H](COC(=O)NCCOCCOc5ccc7c(c5)n(C)c(=O)n7C5CCC(=O)NC5=O)CC6)nc4c3F)c12 (stereo partly drawn) [Compound 107]
29 | 15 to 50 | C#Cc1c(F)ccc2cccc(-c3ncc4c(N5CCC[C@@](C)(O)C5)nc(OC[C@@]56CCCN5[C@H](COC(=O)NCCOCCOCCOc5ccc7c(c5)n(C)c(=O)n7C5CCC(=O)NC5=O)CC6)nc4c3F)c12 (stereo partly drawn) [Compound 108, ((3S,7aS)-7a-(((7-(8-ethynyl-7-fluoronaphthalen-1-yl)-8-fluoro-4-((R)-3-hydroxy-3-methylpiperidin-1-yl)pyrido[4,3-d]pyrimidin-2-yl)oxy)methyl)hexahydro-1H-pyrrolizin-3-yl)methyl (2-(2-(2-((1-(2,6-dioxopiperidin-3-yl)-3-methyl-2-oxo-2,3-dihydro-1H-benzo[d]imidazol-5-yl)oxy)ethoxy)ethoxy)ethyl) carbamate]
30 | 15 to 50 | C#Cc1c(F)ccc2cccc(-c3ncc4c(N5CCC[C@@](C)(O)C5)nc(OC[C@@]56CCCN5[C@H](COC(=O)NCCOCCOCCOCCOc5ccc7c(c5)n(C)c(=O)n7C5CCC(=O)NC5=O)CC6)nc4c3F)c12 (stereo partly drawn) [Compound 109, ((3S,7aS)-7a-(((7-(8-ethynyl-7-fluoronaphthalen-1-yl)-8-fluoro-4-((R)-3-hydroxy-3-methylpiperidin-1-yl)pyrido[4,3-d]pyrimidin-2-yl)oxy)methyl)hexahydro-1H-pyrrolizin-3-yl)methyl (2-(2-(2-(2-((1-(2,6-dioxopiperidin-3-yl)-3-methyl-2-oxo-2,3-dihydro-1H-benzo[d]imidazol-5-yl)oxy)ethoxy)ethoxy)ethoxy)ethyl) carbamate]
